The assay has as its system LPS-induced TNF-α release in peripheral blood mononuclear cells (PBMCs). The assay is described as follows: In vitro determination of PDE4 inhibitory activity in the PBMCs assay (LPS-induced TNF-α release). It is filed as cell-based, human. The settings on record: PBMC; human PBMCs, LPS 3 ng/ml, 18 hours, TNF-α by ELISA; read-out: PDE4 inhibition (IC50, 50% inhibition of LPS-induced TNF-α release). The gist of the method: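 Cryopreserved human PBMCs (10^5 cells/well) pre-incubated 30 min with compound (10^−12 to 10^−6 M or 10^−3 to 10^−7 M), then stimulated with LPS 3 ng/ml for 18 h at 37 °C. TNF-α in medium by ELISA; IC50 as mean ± 95% confidence limits.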

With `CS(=O)(=O)Nc1cc(C(=O)N2CCC[C@H]2C(=O)O[C@@H](Cc2c(Cl)c[n+]([O-])cc2Cl)c2ccc(OC(F)F)c(OCC3CC3)c2)ccc1OCC1CC1` [Compound 19, 3,5-dichloro-4-((S)-2-((S)-1-(4-(cyclopropylmethoxy)-3-(methylsulfonamido)benzoyl)pyrrolidine-2-carbonyloxy)-2-(3-(cyclopropylmethoxy)-4-(difluoromethoxy)phenyl)ethyl)pyridine 1-oxide], the half-maximal inhibitory concentration (IC50) was in the range of 1 to 10 nM.
On to `Nc1ccc(S(=O)(=O)N2CCS[C@H]2C(=O)O[C@@H](Cc2c(Cl)c[n+]([O-])cc2Cl)c2ccc(OC(F)F)c(OCC3CC3)c2)cc1` [Compound 150, 4-((S)-2-((S)-3-(4-aminophenylsulfonyl)thiazolidine-2-carbonyloxy)-2-(3-(cyclopropylmethoxy)-4-(difluoromethoxy)phenyl)ethyl)-3,5-dichloropyridine 1-oxide], for which the concentration for half-maximal inhibition (IC50) was < 0.1 nM.
For `COc1ccc(S(=O)(=O)N2CCCC[C@H]2C(=O)O[C@@H](Cc2c(Cl)c[n+]([O-])cc2Cl)c2ccc(OC(F)F)c(OCC3CC3)c2)cc1OC` [Compound 98, 3,5-dichloro-4-((S)-2-(3-(cyclopropylmethoxy)-4-(difluoromethoxy)phenyl)-2-((S)-1-(3,4-dimethoxyphenylsulfonyl)piperidine-2-carbonyloxy)ethyl)pyridine 1-oxide], the 50% inhibitory concentration (IC50) was 0.1 to 1 nM.
As to `CNS(=O)(=O)c1ccc(S(=O)(=O)N2CCS[C@H]2C(=O)O[C@@H](Cc2c(Cl)c[n+]([O-])cc2Cl)c2ccc(OC(F)F)c(OCC3CC3)c2)cc1` [Compound 94, 3,5-dichloro-4-((S)-2-(3-(cyclopropylmethoxy)-4-(difluoromethoxy)phenyl)-2-((S)-3-(4-(N-methylsulfamoyl)phenylsulfonyl)thiazolidine-2-carbonyloxy)ethyl)pyridine 1-oxide], the concentration for half-maximal inhibition (IC50) is < 0.1 nM.
With `NCCc1ccc(C(=O)N2CCSC2C(=O)O[C@@H](Cc2c(Cl)c[n+]([O-])cc2Cl)c2ccc(OC(F)F)c(OCC3CC3)c2)cc1` (stereo partly drawn) [Compound 22, 4-((2S)-2-(3-(4-(2-aminoethyl)benzoyl)thiazolidine-2-carbonyloxy)-2-(3-(cyclopropylmethoxy)-4-(difluoromethoxy)phenyl)ethyl)-3,5-dichloropyridine 1-oxide], the IC50 lay in the range of 0.1 to 1 nM.
As for `NS(=O)(=O)c1cccc(S(=O)(=O)N2CCSC2C(=O)O[C@@H](Cc2c(Cl)c[n+]([O-])cc2Cl)c2ccc(OC(F)F)c(OCC3CC3)c2)c1` (stereo partly drawn) [Compound 59, 3,5-dichloro-4-((2S)-2-(3-(cyclopropylmethoxy)-4-(difluoromethoxy)phenyl)-2-(3-(3-sulfamoylphenylsulfonyl)thiazolidine-2-carbonyloxy)ethyl)pyridine 1-oxide], the IC50 is < 0.1 nM.
`O=C(O[C@@H](Cc1c(Cl)c[n+]([O-])cc1Cl)c1ccc(OC(F)F)c(OCC2CC2)c1)[C@@H]1SCCN1S(=O)(=O)c1ccoc1` [Compound 96, 3,5-dichloro-4-((S)-2-(3-(cyclopropylmethoxy)-4-(difluoromethoxy)phenyl)-2-((S)-3-(furan-3-ylsulfonyl)thiazolidine-2-carbonyloxy)ethyl)pyridine 1-oxide]: the IC50 is < 0.1 nM.
As for `Cc1ccc(S(=O)(=O)N2CCSC2C(=O)O[C@@H](Cc2c(Cl)c[n+]([O-])cc2Cl)c2ccc(OC(F)F)c(OCC3CC3)c2)c(C)c1` (stereo partly drawn) [Compound 61, 3,5-dichloro-4-((2S)-2-(3-(cyclopropylmethoxy)-4-(difluoromethoxy)phenyl)-2-(3-(2,4-dimethylphenylsulfonyl)thiazolidine-2-carbonyloxy)ethyl)pyridine 1-oxide], the half-inhibitory concentration (IC50) was in the range of 0.1 to 1 nM.
In the case of `COc1ccc(OC)c(S(=O)(=O)N2CCS[C@H]2C(=O)O[C@@H](Cc2c(Cl)c[n+]([O-])cc2Cl)c2ccc(OC(F)F)c(OCC3CC3)c2)c1` [Compound 115, 3,5-dichloro-4-((S)-2-(3-(cyclopropylmethoxy)-4-(difluoromethoxy)phenyl)-2-((S)-3-(2,5-dimethoxyphenylsulfonyl)thiazolidine-2-carbonyloxy)ethyl)pyridine 1-oxide], the IC50 was < 0.1 nM.
As for `Nc1cccc(S(=O)(=O)N2CCS[C@H]2C(=O)O[C@@H](Cc2c(Cl)c[n+]([O-])cc2Cl)c2ccc(OC(F)F)c(OCC3CC3)c2)c1` [Compound 140, 4-((S)-2-((S)-3-(3-aminophenylsulfonyl)thiazolidine-2-carbonyloxy)-2-(3-(cyclopropylmethoxy)-4-(difluoromethoxy)phenyl)ethyl)-3,5-dichloropyridine 1-oxide], the IC50 is < 0.1 nM.
`COc1ccc(S(=O)(=O)N2CCC[C@H]2C(=O)O[C@@H](Cc2c(Cl)c[n+]([O-])cc2Cl)c2ccc(OC(F)F)c(OCC3CC3)c2)cc1C(=O)N(C)C` [Compound 124, 3,5-dichloro-4-((S)-2-(3-(cyclopropylmethoxy)-4-(difluoromethoxy)phenyl)-2-((S)-1-(3-(dimethylcarbamoyl)-4-methoxyphenylsulfonyl)pyrrolidine-2-carbonyloxy)ethyl)pyridine 1-oxide]: the IC50 was < 0.1 nM.
As for `O=C(O[C@@H](Cc1c(Cl)c[n+]([O-])cc1Cl)c1ccc(OC(F)F)c(OCC2CC2)c1)[C@@H]1SCCN1S(=O)(=O)c1c[nH]c(C(=O)N2CCCC2)c1` [Compound 242, 3,5-dichloro-4-((S)-2-(3-(cyclopropylmethoxy)-4-(difluoromethoxy)phenyl)-2-((S)-3-(5-(pyrrolidine-1-carbonyl)-1H-pyrrol-3-ylsulfonyl)thiazolidine-2-carbonyloxy)ethyl)pyridine 1-oxide], the IC50 was < 0.1 nM.
The value for `O=C(O[C@@H](Cc1c(Cl)c[n+]([O-])cc1Cl)c1ccc(OC(F)F)c(OCC2CC2)c1)[C@@H]1CCCN1S(=O)(=O)c1ccccc1` [Compound 86, 3,5-dichloro-4-((S)-2-(3-(cyclopropylmethoxy)-4-(difluoromethoxy)phenyl)-2-((S)-1-(phenylsulfonyl)pyrrolidine-2-carbonyloxy)ethyl)pyridine 1-oxide] was 0.1 to 1 nM; that for `CS(=O)(=O)c1ccc(S(=O)(=O)N2CCS[C@H]2C(=O)O[C@@H](Cc2c(Cl)c[n+]([O-])cc2Cl)c2ccc(OC(F)F)c(OCC3CC3)c2)cc1` [Compound 109, 3,5-dichloro-4-((S)-2-(3-(cyclopropylmethoxy)-4-(difluoromethoxy)phenyl)-2-((S)-3-(4-(methylsulfonyl)phenylsulfonyl)thiazolidine-2-carbonyloxy)ethyl)pyridine 1-oxide] was < 0.1 nM.
`CN(C)C(=O)c1cccc(S(=O)(=O)N2CCSC2C(=O)O[C@@H](Cc2c(Cl)c[n+]([O-])cc2Cl)c2ccc(OC(F)F)c(OCC3CC3)c2)c1` (stereo partly drawn) [Compound 56, 3,5-dichloro-4-((2S)-2-(3-(cyclopropylmethoxy)-4-(difluoromethoxy)phenyl)-2-(3-(3-(dimethylcarbamoyl)phenylsulfonyl)thiazolidine-2-carbonyloxy)ethyl)pyridine 1-oxide]: the IC50 was < 0.1 nM.
In the case of `O=C(O[C@@H](Cc1c(Cl)c[n+]([O-])cc1Cl)c1ccc(OC(F)F)c(OCC2CC2)c1)C1SCCN1C(=O)c1cnco1` (stereo partly drawn) [Compound 35, 3,5-dichloro-4-((2S)-2-(3-(cyclopropylmethoxy)-4-(difluoromethoxy)phenyl)-2-(3-(oxazole-5-carbonyl)thiazolidine-2-carbonyloxy)ethyl)pyridine 1-oxide], the concentration for half-maximal inhibition (IC50) is < 0.1 nM.
